# From patent EP2927685A1, “Suitable hepatocytes for in-vitro hepatitis tests” (Medicyte GmbH, priority 2014, dated 2015)
# Where two headings read alike, the source gives them in different places.
# Key:
# [1] = system: primary human hepatocyte transduced with HPV E6 and E7 genes
# [2] = system: differentiated hepatocytes; details: human, 48 h
# [3] = system: differentiated hepatocytes; assay: Intrahepatic cholestasis: bile secretion by CDFDA staining; format: cell-based, human; details: 24 hours of exposure, compared to melatonin
# [4] = system: differentiated hepatocytes; assay: Apoptosis quantification by TUNEL
# [5] = system: CYP3A4/5, 2E1, 2B6 and 1A1; assay: Cytochrome P450 inhibition in differentiated hepatocytes; format: in vitro ADME, human; details: after 30 min of incubation, 200 µM naringenin
# [6] = system: CYP450; details: human, hepatocytes, 72 h, 200 µM
# [7] = system: CYP1A1; assay: Cytochrome P450 induction in differentiated hepatocytes (CYP1A1); format: in vitro ADME, human; details: 50 µM omeprazole, normalized to vehicle-only controls
molecule,measurement,setting,value
N#CC(=C(/N)Sc1ccccc1N)/C(C#N)=C(\N)Sc1ccccc1N [U0126],epithelial phenotype of the cells,[1],stable E-Cadherin positive epithelial phenotype
CC(=O)Oc1ccccc1C(=O)O [acetylsalicylic acid],increase in intracellular lipids compared to control,[2],33-47%
CN(C)CCCN1c2ccccc2Sc2ccc(Cl)cc21 [chlorpromazine],bile secretion (measure of intrahepatic cholestasis),[3],loss of bile secretion function
COc1ccc2[nH]cc(CCNC(C)=O)c2c1 [melatonin],Percent apoptosis (positive nuclei),"[4]; differentiated hepatocytes exposed for 24 hours to TC20 values, TUNEL",4%
O=C1C[C@@H](c2ccc(O)cc2)Oc2cc(O)cc(O)c21 [naringenin],"inhibition of CYP3A4/5, 2E1, 2B6 and 1A1",[5],drastically inhibited
same,increase in CYP450 activity compared with vehicle-treated cells,[6],5-7 fold
COc1ccc2[nH]c([S+]([O-])Cc3ncc(C)c(OC)c3C)nc2c1 (stereo not drawn) [omeprazole],CYP1A1 increased by stimulation,[7],10 folds
Cc1c(C)c2c(c(C)c1O)CCC(C)(COc1ccc(CC3SC(=O)NC3=O)cc1)O2 (stereo not drawn) [troglitazone],bile secretion (measure of intrahepatic cholestasis),[3],loss of bile secretion function
aflatoxin B1,Percent apoptosis (positive nuclei),[4],23%
